Among the data in patent US9115101B2 (Genentech, Inc., priority 2012, dated 2015) are IC50 values, retold here.

For the test, the target named is T1, RORc ligand binding domain (Homo sapiens, UniProt P51449).
T1 construct: host or cells: E. coli
T1 sequence (P51449 269-508 limits assumed): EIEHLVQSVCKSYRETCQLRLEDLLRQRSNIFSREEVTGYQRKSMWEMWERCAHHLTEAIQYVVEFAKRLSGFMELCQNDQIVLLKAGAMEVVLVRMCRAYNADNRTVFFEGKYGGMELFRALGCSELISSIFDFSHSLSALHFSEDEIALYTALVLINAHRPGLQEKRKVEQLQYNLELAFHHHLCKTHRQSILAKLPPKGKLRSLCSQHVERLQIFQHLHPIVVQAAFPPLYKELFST
Description: In Vitro RORc Ligand Binding Assay (25-[3H]hydroxycholesterol radioligand filtration).

Setting [1] is: In Vitro RORc Ligand Binding Assay, Table 4, read-out: RORc IC50.

Where two headings read alike, the source gives them in different places.

With `CO[C@@H](C)C(=O)N1CCN(c2ccc(CN3[C@@H](C)CCC(c4ccccc4)S3(=O)=O)c(F)c2)CC1` (single isomer, unassigned) [Example 76], under setting [1], the IC50 came to 0.031 µM.
In the case of `CC(=O)N1CCN(c2ccc(CN3[C@@H](C)CCC(c4ccc(C)cc4)S3(=O)=O)c(F)c2)CC1` (single isomer, unassigned) [Example 184], the IC50 under setting [1] came out at 0.098 µM.
For the molecule `O=C(CO)N1CCN(c2ccc(CN3CCCCC(c4ccccc4)S3(=O)=O)cc2)CC1` (single isomer, unassigned) [Example 316, 1-{4-[4-(1,1-Dioxo-7-phenyl-[1,2]thiazepan-2-ylmethyl)-phenyl]-piperazin-1-yl}-2-hydroxy-ethanone], the IC50 under setting [1] stood at 0.173 µM.
With `CC(=O)N1CC2CC2(NC(=O)c2ccc(CN3[C@@H](C)CCC(c4ccccc4)S3(=O)=O)cc2)C1` (stereo partly drawn) [Example 367, N-(3-Acetyl-3-aza-bicyclo[3.1.0]hex-1-yl)-4-((3S)-methyl-1,1-dioxo-6-phenyl-[1,2]thiazinan-2-ylmethyl)-benzamide], under setting [1], the IC50 turned out to be 2.27 µM.
As to `C[C@H]1CCC(c2ccccc2)S(=O)(=O)N1Cc1ccc(N2CCC(n3cncn3)CC2)cc1F` (stereo partly drawn) [Example 215, (3S)-2-[2-Fluoro-4-(4-[1,2,4]triazol-1-yl-piperidin-1-yl)-benzyl]-3-methyl-6-phenyl-[1,2]thiazinane 1,1-dioxide], under setting [1], the IC50 was found to be 0.03 µM.
With `C[C@H]1CCC(c2ccccc2)S(=O)(=O)N1Cc1ccc(C(=O)N2CCCC(CO)C2)cc1` (stereo partly drawn) [Example 281, (3-Hydroxymethyl-piperidin-1-yl)-[4-((3S)-methyl-1,1-dioxo-6-phenyl-[1,2]thiazinan-2-ylmethyl)-phenyl]-methanone], under setting [1], the IC50 amounted to 2.04 µM.
As for `COC(=O)C1(n2cnnc2)CCN(c2ccc(CN3[C@@H](C)CCC(c4ccccc4)S3(=O)=O)c(F)c2)CC1` (stereo partly drawn) [Example 427, 1-[3-Fluoro-4-((3S)-methyl-1,1-dioxo-6-phenyl-[1,2]thiazinan-2-ylmethyl)-phenyl]-4-[1,2,4]triazol-4-yl-piperidine-4-carboxylic acid methyl ester], where the note is “read-out: RORc IC50”, the IC50 worked out at 0.447 µM.
Take `CC(=O)N1CCN(c2ccc(CN3[C@@H](C)CCC(c4ccccc4)S3(=O)=O)c(C)c2)CC1` (single isomer, unassigned) [Example 131]: under setting [1], the IC50 was 0.501 µM.
Take `N#CCC(=O)N1CCN(c2ccc(CN3CCCCC(c4ccccc4)S3(=O)=O)c(F)c2)CC1` (single isomer, unassigned) [Example 302, 3-{4-[4-(1,1-Dioxo-7-phenyl-[1,2]thiazepan-2-ylmethyl)-3-fluoro-phenyl]-piperazin-1-yl}-3-oxo-propionitrile]: the IC50 under setting [1] was 0.024 µM.
With `CC[C@H]1CCC(c2ccccc2)S(=O)(=O)N1Cc1ccc(N2CCN(C(C)=O)CC2)cc1F` (single isomer, unassigned) [Example 194], the IC50 under setting [1] came out at 0.018 µM.
As to `C[C@H]1CCC(c2ccccc2)S(=O)(=O)N1Cc1ccc(N2CCC(C)(n3cnnc3)CC2)cc1F` (single isomer, unassigned) [Example 413], the IC50 (read-out: RORc IC50) is 0.032 µM.
`C[C@H]1CCC(c2ccccc2)S(=O)(=O)N1Cc1ccc(N2CCn3c(cnc3C(N)=O)C2)cc1F` (stereo partly drawn) [Example 403, 7-[3-Fluoro-4-((3S)-methyl-1,1-dioxo-6-phenyl-[1,2]thiazinan-2-ylmethyl)-phenyl]-5,6,7,8-tetrahydro-imidazo[1,5-a]pyrazine-3-carboxylic acid amide]: for the setting “read-out: RORc IC50”, the IC50 is 0.346 µM.
In the case of `CC(=O)N1CCN(c2ccc(CN3CCCCC(c4ccccc4)S3(=O)=O)cc2)CC1` (single isomer, unassigned) [Example 306, 1-{4-[4-(1,1-Dioxo-7-phenyl-[1,2]thiazepan-2-ylmethyl)-phenyl]-piperazin-1-yl}-ethanone], the IC50 under setting [1] is 0.087 µM.
Turning to `C[C@H]1CCC(c2ccccc2)S(=O)(=O)N1Cc1ccc(C(=O)NC2CCC(O)C2)cc1` (single isomer, unassigned) [Example 411], where the note is “read-out: RORc IC50”, the IC50 came to 3.52 µM.
As for `C[C@H]1CCC(c2ccccc2)S(=O)(=O)N1Cc1ccc(C(=O)N2CC3(CCOCC3)C2)cc1` (stereo partly drawn) [Example 370, [4-((3S)-Methyl-1,1-dioxo-6-phenyl-[1,2]thiazinan-2-ylmethyl)-phenyl]-(7-oxa-2-aza-spiro[3.5]non-2-yl)-methanone], the IC50 under setting [1] turned out to be 1.06 µM.
Consider `C[C@H]1CCC(c2ccccc2)S(=O)(=O)N1Cc1ccc(OC2CCN(S(C)(=O)=O)CC2)nc1` (single isomer, unassigned) [Example 35], for which the IC50 under setting [1] came to 1.1 µM.
On the same count and under the same terms, the result for `C[C@H]1CCC(c2ccccc2)S(=O)(=O)N1Cc1ccc(C(=O)N2C3CCC2C(C(N)=O)C3)cc1` (stereo partly drawn) [Example 355, 7-[4-((3S)-Methyl-1,1-dioxo-6-phenyl-[1,2]thiazinan-2-ylmethyl)-benzoyl]-7-aza-bicyclo[2.2.1]heptane-2-carboxylic acid amide] reads 0.51 µM.
For `C[C@H]1CCC(c2ccccc2)S(=O)(=O)N1Cc1ccc(OC2CCNC2=O)cc1` (stereo partly drawn) [Example 446, 3-[4-((3S)-Methyl-1,1-dioxo-6-phenyl-[1,2]thiazinan-2-ylmethyl)-phenoxy]-pyrrolidin-2-one], the IC50 (read-out: RORc IC50) was determined as 1.5 µM.
In the case of `CCCNC(=O)[C@@H]1CN(c2ccc(CN3[C@@H](C)CCC(c4ccccc4)S3(=O)=O)c(F)c2)CCN1C(C)=O` (stereo partly drawn) [Example 395, (S)-1-Acetyl-4-[3-fluoro-4-((3S)-methyl-1,1-dioxo-6-phenyl-[1,2]thiazinan-2-ylmethyl)-phenyl]-piperazine-2-carboxylic acid propylamide], the IC50 under setting [1] amounted to 0.287 µM.
Consider `C[C@H]1CCC(c2ccccc2)S(=O)(=O)N1Cc1ccc(C(=O)N2CCc3cn[nH]c3C2)cc1` (stereo partly drawn) [Example 365, [4-((3S)-Methyl-1,1-dioxo-6-phenyl-[1,2]thiazinan-2-ylmethyl)-phenyl]-(1,4,5,7-tetrahydro-pyrazolo[3,4-c]pyridin-6-yl)-methanone], for which the IC50 under setting [1] was found to be 1.35 µM.
In the case of `COC(=O)C1(n2cnnc2)CCN(c2ccc(CN3[C@@H](C)CCC(c4ccccc4)S3(=O)=O)c(F)c2)CC1` (stereo partly drawn) [Example 426, 1-[3-Fluoro-4-((3S)-methyl-1,1-dioxo-6-phenyl-[1,2]thiazinan-2-ylmethyl)-phenyl]-4-[1,2,4]triazol-4-yl-piperidine-4-carboxylic acid methyl ester], where the note is “read-out: RORc IC50”, the half-maximal inhibitory concentration (IC50) was determined as 0.453 µM.
Consider `C[C@H]1CCC(c2ccccc2)S(=O)(=O)N1Cc1ccc(N2CCC(C#N)CC2)cc1F` (single isomer, unassigned) [Example 87], for which, under setting [1], the IC50 was found to be 0.2 µM.
Regarding `C[C@H]1CCC(c2ccccc2)S(=O)(=O)N1Cc1ccc(N[C@H]2CC[C@@H](n3cnnc3)CC2)cc1F` (stereo partly drawn) [Example 231, [3-Fluoro-4-((3S)-methyl-1,1-dioxo-6-phenyl-[1,2]thiazinan-2-ylmethyl)-phenyl]-(4-[1,2,4]triazol-4-yl-cyclohexyl)-amine], the IC50 under setting [1] worked out at 0.073 µM.
Regarding `CC(=O)N1CCN(c2ccc(CN3[C@@H](C)CCC(c4ccccc4C#N)S3(=O)=O)c(F)c2)CC1` (single isomer, unassigned) [Example 208], under setting [1], the IC50 turned out to be 0.032 µM.
As to `CC1=C(N2CCN(c3ccc(CN4[C@@H](C)CCC(c5ccccc5)S4(=O)=O)c(F)c3)CC2)CCC1=O` (stereo partly drawn) [Example 189, 3-{4-[3-Fluoro-4-((3S)-3-methyl-1,1-dioxo-6-phenyl-[1,2]thiazinan-2-ylmethyl)-phenyl]-piperazin-1-yl}-2-methyl-cyclopent-2-enone], the IC50 under setting [1] worked out at 0.059 µM.
On to `C[C@H]1CCC(c2ccccc2)S(=O)(=O)N1Cc1ccc(C(=O)NCCN2CCCCC2=O)cc1` (stereo partly drawn) [Example 277, 4-((3S)-Methyl-1,1-dioxo-6-phenyl-[1,2]thiazinan-2-ylmethyl)-N-[2-(2-oxo-piperidin-1-yl)-ethyl]-benzamide], for which the IC50 under setting [1] came to 5.11 µM.
With `C[C@H]1CCC(c2ccccc2)S(=O)(=O)N1Cc1ccc(N[C@H]2CC[C@@H](C#N)CC2)cc1F` (single isomer, unassigned) [Example 110], the IC50 under setting [1] came out at 0.035 µM.
Consider `C[C@H]1CCC(c2ccccc2)S(=O)(=O)N1Cc1ccc(N2CCn3c(n[nH]c3=O)C2)cc1F` (single isomer, unassigned) [Example 158], for which the IC50 under setting [1] stood at 3.93 µM.
Still for that read-out and setting: the result for `C[C@H]1CCC(c2ccccc2)S(=O)(=O)N1Cc1ccc(N2CCC(S(=O)(=O)N(C)C)CC2)cc1F` (single isomer, unassigned) [Example 103] reads 0.146 µM; that for `C[C@@H]1CCC(c2ccccc2)S(=O)(=O)N1Cc1ccc(OC2CCN(S(C)(=O)=O)CC2)nc1` (single isomer, unassigned) [Example 51], 1.4 µM.
Turning to `CC(=O)N1CCN(c2ccc(CN3C[C@H](C)CC(c4ccccc4)S3(=O)=O)c(F)c2)CC1` (single isomer, unassigned) [Example 169], under setting [1], the IC50 was determined as 0.132 µM.
As for `CC(=O)N1CCN(c2ccc(CN3CC4(CC4)CC(c4ccccc4)S3(=O)=O)c(F)c2)CC1` (single isomer, unassigned) [Example 196, 1-{4-[4-(6,6-Dioxo-7-phenyl-6-thia-5-aza-spiro[2.5]oct-5-ylmethyl)-3-fluoro-phenyl]-piperazin-1-yl}-ethanone], the IC50 under setting [1] is 0.192 µM.
Still for that read-out and setting: the result for `O=c1[nH]nc(C2CCN(c3ccc(CN4CCCCC(c5ccccc5)S4(=O)=O)cc3)CC2)o1` (single isomer, unassigned) [Example 337, 5-{1-[4-(1,1-Dioxo-7-phenyl-[1,2]thiazepan-2-ylmethyl)-phenyl]-piperidin-4-yl}-3H-[1,3,4]oxadiazol-2-one] reads 0.024 µM; that for `C[C@H]1CCC(c2ccccc2)S(=O)(=O)N1Cc1ccc(N2CCC(CS(C)(=O)=O)CC2)cc1F` (single isomer, unassigned) [Example 105], 0.018 µM.
Consider `O=S1(=O)[C@H](c2ccccc2)CCC2(CC2)N1Cc1ccc(N2CCC(n3cnnc3)CC2)cc1F` [Example 421, (S)-4-[2-Fluoro-4-(4-[1,2,4]triazol-4-yl-piperidin-1-yl)-benzyl]-6-phenyl-5-thia-4-aza-spiro[2.5]octane 5,5-dioxide], for which the IC50 (RORc IC50) amounted to 0.289 µM.

The term IC50 denotes the concentration that inhibits the measured activity by half.
